From ChEMBL document CHEMBL3407458, “Design and synthesis of pyrazole-oxindole conjugates targeting tubulin polymerization as new anticancer agents” (Eur J Med Chem, 2015)
Activity calls are given as the source filed them. The calls are words filed in the database; no cut-off is given here.

Legend:
[1] = system: HeLa; experiment: Cytotoxicity against human HeLa cells assessed as cell viability after 48 hrs by MTT assay; format: functional, cell-based
[2] = system: A549; experiment: Cytotoxicity against human A549 cells assessed as cell viability after 48 hrs by MTT assay; format: functional, cell-based; details: A549, 48 h
[3] = system: MCF7; experiment: Cytotoxicity against human MCF7 cells assessed as cell viability after 48 hrs by MTT assay; format: functional, cell-based; details: MCF7, 48 h
[4] = system: DU-145; experiment: Cytotoxicity against human DU145 cells assessed as cell viability after 48 hrs by MTT assay; format: functional, cell-based; details: DU-145, 48 h
[5] = biological target: Tubulin (Bos taurus) (UniProt Q6B856+Q862L2+Q862F3); experiment: Inhibition of bovine brain tubulin polymerization by fluorescence based tubulin polymerization assay
[6] = system: HeLa; experiment: Antimitotic activity against human HeLa cells assessed as cells accumulation at G2/M phase at 5 uM after 24 hrs by Propidium iodide staining based FACS/flow cytometry (reference value: 17.68%); format: functional
[7] = system: HeLa; experiment: Antimitotic activity against human HeLa cells assessed as cells accumulation at G2/M phase at 10 uM after 24 hrs by Propidium iodide staining based FACS/flow cytometry (reference value: 17.68%); format: functional
[8] = system: HeLa; experiment: Antimicrotubule activity in human HeLa cells assessed as multipolar spindle fiber at 5 uM after 24 hrs; format: functional, cell-based
[9] = species on record: Danio rerio; experiment: Delay in development of wild type zebrafish embryo at 25 uM observed 28 hpf by stereomicroscopy; format: functional, organism-based
[10] = system: HeLa; experiment: Antimicrotubule activity in human HeLa cells assessed as metaphase arrest at 5 uM after 24 hrs by immunohistochemistry; format: functional, cell-based

## COc1ccc(-c2cc(/C=C3\C(=O)Nc4ccccc43)[nH]n2)cc1OC
[1]
  IC50: 21 µM
[2]
  IC50: 29 µM
[3]
  IC50: 36 µM
[4]
  IC50: 31 µM
[5]
  INH: 23 µM

## COc1cc(-c2cc(/C=C3\C(=O)Nc4ccc([N+](=O)[O-])cc43)[nH]n2)cc(OC)c1OC
[1]
  IC50: 30 µM
[2]
  IC50: 22 µM
[3]
  IC50: 16 µM
[4]
  IC50: 20 µM
[5]
  INH: 15.3 µM

## O=C1Nc2ccc([N+](=O)[O-])cc2/C1=C/c1cc(-c2ccc3c(c2)OCO3)n[nH]1
[1]
  IC50: 24 µM
[2]
  IC50: 37 µM
[3]
  IC50: 17 µM
[4]
  IC50: 36 µM
[5]
  INH: 14.7 µM

## COc1cc(-c2cc(/C=C3\C(=O)Nc4ccc(Cl)cc43)[nH]n2)cc(OC)c1OC
[1]
  IC50: 12 µM
[2]
  IC50: 27 µM
[3]
  IC50: 44 µM
[4]
  IC50: 21 µM
[5]
  INH: 25.3 µM

## COc1ccc(-c2cc(/C=C3\C(=O)Nc4cc(Cl)ccc43)[nH]n2)cc1
[1]
  IC50: 2.4 µM
[2]
  IC50: 3 µM
[3]
  IC50: 3.6 µM
[4]
  IC50: 3 µM
[6]
  Activity: 71.2%
[7]
  Activity: 77.6%
[8]
  Activity: Active
[5]
  INH: 5.9 µM
[9]
  Activity: Active

## O=C1Nc2ccc(Cl)cc2/C1=C/c1cc(-c2ccc3c(c2)OCO3)n[nH]1
[1]
  IC50: 12 µM
[2]
  IC50: 29 µM
[3]
  IC50: 44 µM
[4]
  IC50: 24 µM
[5]
  INH: 35.3 µM

## COc1ccc2c(c1)/C(=C/c1cc(-c3ccc(OC)c(OC)c3)n[nH]1)C(=O)N2
[1]
  IC50: 13 µM
[2]
  IC50: 15 µM
[3]
  IC50: 32 µM
[4]
  IC50: 34 µM
[5]
  INH: 22.1 µM

## COc1ccc2c(c1)/C(=C/c1cc(-c3cc(OC)c(OC)c(OC)c3)n[nH]1)C(=O)N2
[1]
  IC50: 16 µM
[2]
  IC50: 33 µM
[3]
  IC50: 8.8 µM
[4]
  IC50: 9.1 µM
[5]
  INH: 16 µM

## COc1ccc(-c2cc(/C=C3\C(=O)Nc4ccc(OC)cc43)[nH]n2)cc1
[1]
  IC50: 7.1 µM
[2]
  IC50: 8 µM
[3]
  IC50: 6 µM
[4]
  IC50: 9 µM
[6]
  Activity: 60.19%
[7]
  Activity: 60.38%
[10]
  Activity: Active
[5]
  INH: 9.2 µM

## COc1ccc(-c2cc(/C=C3\C(=O)Nc4ccc(Cl)cc43)[nH]n2)cc1
[1]
  IC50: 5 µM
[2]
  IC50: 6 µM
[3]
  IC50: 9.3 µM
[4]
  IC50: 4 µM
[6]
  Activity: 69.01%
[7]
  Activity: 72.75%
[8]
  Activity: Active
[5]
  INH: 8.1 µM
[9]
  Activity: Active

## COc1ccc(-c2cc(/C=C3\C(=O)Nc4ccc(Cl)cc43)[nH]n2)cc1OC
[1]
  IC50: 10 µM
[2]
  IC50: 24 µM
[3]
  IC50: 16 µM
[4]
  IC50: 21 µM
[5]
  INH: 33.8 µM

## COc1ccc2c(c1)/C(=C/c1cc(-c3ccc4c(c3)OCO4)n[nH]1)C(=O)N2
[1]
  IC50: 13.5 µM
[2]
  IC50: 24 µM
[3]
  IC50: 9.8 µM
[4]
  IC50: 34 µM
[5]
  INH: 12 µM

## COc1ccc(-c2cc(/C=C3\C(=O)Nc4ccc([N+](=O)[O-])cc43)[nH]n2)cc1OC
[1]
  IC50: 36 µM
[2]
  IC50: 42 µM
[3]
  IC50: 42 µM
[4]
  IC50: 28 µM
[5]
  INH: 18 µM

## COC(=O)Nc1nc2cc(C(=O)c3cccs3)ccc2[nH]1 [NOCODAZOLE]
[1]
  IC50: 1.1 µM
[2]
  IC50: 0.89 µM
[3]
  IC50: 1.7 µM
[4]
  IC50: 3.2 µM
[5]
  INH: 2.2 µM
[9]
  Activity: Active

## O=C1Nc2ccc(F)cc2/C1=C/c1cc(-c2ccc3c(c2)OCO3)n[nH]1
[1]
  IC50: 32 µM
[2]
  IC50: 26 µM
[3]
  IC50: 36 µM
[4]
  IC50: 21 µM
[5]
  INH: 24 µM

## O=C1Nc2cc(Cl)ccc2/C1=C/c1cc(-c2ccc3c(c2)OCO3)n[nH]1
[1]
  IC50: 7.3 µM
[2]
  IC50: 27 µM
[3]
  IC50: 18 µM
[4]
  IC50: 24 µM
[5]
  INH: 14.5 µM

## COc1ccc(-c2cc(/C=C3\C(=O)Nc4ccc([N+](=O)[O-])cc43)[nH]n2)cc1
[1]
  IC50: 33 µM
[2]
  IC50: 22 µM
[3]
  IC50: 24 µM
[4]
  IC50: 26 µM
[5]
  INH: 21 µM

## COc1ccc(-c2cc(/C=C3\C(=O)Nc4ccc(F)cc43)[nH]n2)cc1
[1]
  IC50: 22 µM
[2]
  IC50: 29 µM
[3]
  IC50: 36 µM
[4]
  IC50: 25 µM
[5]
  INH: 25 µM

## COc1cc(-c2cc(/C=C3\C(=O)Nc4ccccc43)[nH]n2)cc(OC)c1OC
[1]
  IC50: 21 µM
[2]
  IC50: 21 µM
[3]
  IC50: 27 µM
[4]
  IC50: 35 µM
[5]
  INH: 18 µM

## COc1cc(-c2cc(/C=C3\C(=O)Nc4cc(Cl)ccc43)[nH]n2)cc(OC)c1OC
[1]
  IC50: 11 µM
[2]
  IC50: 33 µM
[3]
  IC50: 22 µM
[4]
  IC50: 27 µM
[5]
  INH: 22.4 µM

## COc1ccc(-c2cc(/C=C3\C(=O)Nc4cc(Cl)ccc43)[nH]n2)cc1OC
[1]
  IC50: 11 µM
[2]
  IC50: 18 µM
[3]
  IC50: 27 µM
[4]
  IC50: 13.9 µM
[5]
  INH: 18.9 µM

## COc1ccc(-c2cc(/C=C3\C(=O)Nc4ccccc43)[nH]n2)cc1
[1]
  IC50: 18 µM
[2]
  IC50: 14 µM
[3]
  IC50: 15 µM
[4]
  IC50: 21 µM
[5]
  INH: 38.9 µM
[9]
  Activity: Active
